Reference: patent US20050064382A1, “Method of prevention of lysosomal leakage in eukaryotic cells by using 6-methyluracil based water-soluble compounds and method of producing thereof” (priority 2002, published 2005)

What was measured:
[1] = test system: THP-1 cells; assay: Long-term growth of THP-1 cells without change of medium (starvation); format: cell-based, human
[2] = test system: ATT-20 cells (anterior lobe of the pituitary gland, corticotrophs); assay: Storage of ATT-20 cells at low temperature, viability by well bottom coverage; format: cell-based; details: 10% Glycerol
Method: The goal of the study was to assess the influence of Glucural on cell recovery of different mammalian cells suspended in various cryo-protectors. A single layer of the rat thyroid-derived cell line FRTL-5 was grown in VPF-12 medium containing 10% calf serum (C.S.) in Petri dishes (10 cm) stored in an environment of 5% CO2, 100% humidity and at 37° C. Cell coverage on the Petri dish bottom reached 80-90% over 6-8 days. A single-layer cell culture of the cell line from the anterior lobe of the pituitary gland (corticotrophs) of ATT-20 was grown in similar fashion but in D-MEM medium containing 10% C.S.
After exposure, cell suspensions were melted quickly in aliquots with cell suspension equal to 0.2 or 0.4 ml per well. The growing period varied depending on conditions of cell storage. All trials were performed in duplicate. Cell viability was estimated by the percentage of the well bottom covered by cells.
The same method was used here as in tests with MEL cells. Cryo-protectors used were not optimal for FRTL-5 and ATT-20 cells. Conditions of freezing were not optimal in assays # 1, 5 and 6.

[3] = test system: MEL cells; assay: Cell recovery after short-term and long-term storage at −135° C.; format: cell-based, mouse; details: for numbers of cells per ml, Short-Term Storage: 3 days at −135° C.; for numbers of cells per ml, Long-Term Storage: six weeks at −135° C.
Method: The cells were then brought to −135° C. over a two-hour period, and stored at this temperature for 3 days (short term) or six weeks (long term). The cells were then thawed quickly by incubation at 37° C., washed twice with growing medium, re-suspended in 5 ml and incubated at 37° C. for 24 hours. The numbers of cells per ml. is x 10^4, two different assays. […]

[4] = test system: neurons from rat embryos brains; assay: Survival of rat embryo brain neurons after mechanical damage; format: cell-based; details: for number of live neurons vs culture without Glucural: 500 mkg/ml
Text: One particularly attractive application of the cytoprotective quality of 6-methyluracil compounds is to extend the life span of primer cell cultures. Primer cell cultures are cell cultures obtained from various tissues. They are used routinely for new drug screening in pharmaceutical industry. The problem associated with many primer cell cultures is their general inability to propagate and grow, leading to their early death and therefore limiting their use in drug research. For example, a rat embryo brain neuron cell culture has about 80% mortality in 12-14 days.
The following is an example of the difficulty in maintaining the survival rate of primer cell cultures. […] The term “growing” of these primer cell cultures means maintaining their survival for a 10-15 day period. But these cell cultures are very valuable as test objects and are commonly used for the initial testing of new drugs (drug screening). Glucural was tested on the neurons from rat embryos brains that were transferred into cell cultures. The viability of these neurons was tested during 2 stages of the production of embryonic neuron cell cultures: 1) mechanical disassembly and washing, and 2) the “growing” of the cell culture.
After 7 days, this ratio increased to nearly triple as shown on FIGS. 1 and 2.

[5] = test system: Drosophila; assay: X-ray caused loss of X-chromosomes in late oocyte of Drosophila; format: in vivo; details: 1000 Roentgens
[6] = test system: MEL cells; assay: Mild damage: cells damaged by one freeze/thaw cycle; format: cell-based, mouse; details: 24 hours
Method: Mild Damage: Influence of Glucural on cells damaged by one-freeze/thaw cycle. Cells were treated exactly as above except that they were subjected to one freeze/thaw cycle (in the absence of cryo-protector) prior to incubation at 37° C. for 24 hours.

[7] = test system: HUCVEC exposed to human TNF-alpha; assay: HUCVEC Assays 4-6: exposure to human TNF-alpha, trypan-blue test; format: cell-based; details: Glucural 500 mkg/ml
Method: To test for cell damage, HUCVEC were exposed for period of 6 to 24 hours to the human TNF-alpha. The trypan-blue test was used. After exposure, mono-layers were removed by trypsin treatment. Results were estimated based on the percentage of colored dead cells in the mono-layer.

[8] = test system: THP-1 cells; assay: Longer-duration growth of THP-1 cells after DMSO shock and starvation, live cells; format: cell-based, human
Method: Growth was measured after the administration of “DMSO Shock” and without a change of medium. […] Trypan-blue test was used: the number of live cells per 0.1 ml (based on 4 counting iterations).

[9] = test system: immortal human monocytes (THP-1 cells); assay: Short-term growth of THP-1 cells in 10% DMSO (trypan-blue test); format: cell-based
Method: Percentage of dead cells (trypan-blue test) and concentrations of live cells (×1,000,000 cells/ml) were determined. The growth medium was RPMI 1640 with fetal serum and other supplements.

[10] = 10% DMSO plus Glucural 10 mkg/ml, 4.5 hrs
[11] = 10% DMSO plus Glucural 10 mkg/ml, 24 hrs
[12] = 10% DMSO plus Glucural 20 mkg/ml, 4.5 hrs
[13] = 10% DMSO plus Glucural 20 mkg/ml, 24 hrs
[14] = 10% DMSO plus Glucural 50 mkg/ml, 4.5 hrs
[15] = 10% DMSO plus Glucural 50 mkg/ml, 24 hrs

complex of 2,4-dihydroxy-6-methylpyrimidine with N-methyl-D-glucamine [Glucural]
percentage of dead cells (trypan blue test) ([1]; Glucural 10 mkg/ml, 3 days of growing): 2.1 ± 0.5% | percentage of dead cells (trypan blue test) ([1]; Glucural 10 mkg/ml, 4 days of growing): 7.2 ± 1.3% | percentage of dead cells (trypan blue test) ([1]; Glucural 10 mkg/ml, 10 days of growing): 10.7 ± 0.2% | percentage of dead cells (trypan blue test) ([1]; Glucural 10 mkg/ml, 14 days of growing): 15.3 ± 0.2% | percentage of dead cells (trypan blue test) ([1]; Glucural 20 mkg/ml, 3 days of growing): 5.5 ± 0.25% | percentage of dead cells (trypan blue test) ([1]; Glucural 20 mkg/ml, 4 days of growing): 0% | percentage of dead cells (trypan blue test) ([1]; Glucural 20 mkg/ml, 10 days of growing): 10.85 ± 0.35% | percentage of dead cells (trypan blue test) ([1]; Glucural 20 mkg/ml, 14 days of growing): 15.3 ± 0.5% | Percentage of well bottom covered by cells ([2]; #4 AtT-20 (3 days), −190° C., Glucural 50 mg/ml): 50-60% | Percentage of well bottom covered by cells ([2]; #4 AtT-20 (3 days), −190° C., Glucural 100 mg/ml): 80-90% | Percentage of well bottom covered by cells ([2]; #5 AtT-20 (44 days), −70° C., Glucural 100 mg/ml): 40-50% | Percentage of well bottom covered by cells ([2]; #5 AtT-20 (44 days), −70° C., Glucural 200 mg/ml): 30-40% | Percentage of well bottom covered by cells ([2]; #6 AtT-20 (46 days), −70° C., additional melting freezing, Glucural 100 mg/ml): 20-30% | Percentage of well bottom covered by cells ([2]; #6 AtT-20 (46 days), −70° C., additional melting freezing, Glucural 200 mg/ml): 10-20% | effect during short-term storage [3]: little or no effect | numbers of cells per ml, Short-Term Storage ([3]; Glucural 10 mkg/ml): 34 ± 4 x 10^4 | numbers of cells per ml, Long-Term Storage ([3]; Glucural 10 mkg/ml): 122 ± 8 x 10^4 | numbers of cells per ml, Short-Term Storage ([3]; Glucural 25 mkg/ml): 38 ± 2 x 10^4 | numbers of cells per ml, Long-Term Storage ([3]; Glucural 25 mkg/ml): 167 ± 3 x 10^4 | numbers of cells per ml, Short-Term Storage ([3]; Glucural 50 mkg/ml): 33 ± 2 x 10^4 | numbers of cells per ml, Long-Term Storage ([3]; Glucural 50 mkg/ml): 200 ± 12 x 10^4 | numbers of cells per ml, Short-Term Storage ([3]; Glucural 100 mkg/ml): 37 ± 2 x 10^4 | numbers of cells per ml, Long-Term Storage ([3]; Glucural 100 mkg/ml): 169 ± 15 x 10^4 | numbers of cells per ml, Short-Term Storage ([3]; Glucural 200 mkg/ml): 56 ± 5 x 10^4 | numbers of cells per ml, Long-Term Storage ([3]; Glucural 200 mkg/ml): 155 ± 14 x 10^4 | increase of cell survival rates during long-term storage ([3]; optimal concentration of about 50 mkg/ml): over 3 times | increase of life span of rat embryo brain neuron cell culture [4]: more than two fold | number of live neurons vs culture without Glucural ([4]; after 7 days): nearly triple | number of live neurons vs culture without Glucural ([4]; after one day): more than double | Frequency of the loss of X-chromosomes, % ([5]; 1.0 mkg/female): 1.7 ± 0.21% | Frequency of the loss of X-chromosomes, % ([5]; 2.0 mkg/female): 1.1 ± 0.20% | Frequency of the loss of X-chromosomes, % ([5]; 2.5 mkg/female): 0.9 ± 0.18% | Frequency of the loss of X-chromosomes, % ([5]; 5.0 mkg/female): 0.7 ± 0.14% | Frequency of the loss of X-chromosomes, % ([5]; 10.0 mkg/female): 1.2 ± 0.19% | number of cells per ml, Mild damage ([6]; Glucural 25 mkg/ml): 36 x 10^4 | number of cells per ml, Mild damage ([6]; Glucural 50 mkg/ml): 53 ± 5 x 10^4 | number of cells per ml, Mild damage ([6]; Glucural 100 mkg/ml): 40 ± 1 x 10^4 | number of cells per ml, Mild damage ([6]; Glucural 200 mkg/ml): 45 ± 0 x 10^4 | number of cells per ml, Mild damage ([6]; Glucural 400 mkg/ml): 31 ± 1 x 10^4 | Percent of dead cells in mono-layer ([7]; Assay 4, 24 hours, TNF-alpha 20 ng/ml): 10.3 ± 1.3% | Percent of dead cells in mono-layer ([7]; Assay 4, 24 hours, no TNF-alpha): 4.4 ± 0.4% | Percent of dead cells in mono-layer ([7]; Assay 5, 8 hours, TNF-alpha 10 ng/ml): 4.1 ± 0.4% | Percent of dead cells in mono-layer ([7]; Assay 5, 8 hours, TNF-alpha 20 ng/ml): 5.4 ± 0.4% | Percent of dead cells in mono-layer ([7]; Assay 5, 8 hours, no TNF-alpha): 5.7 ± 0.5% | Percent of dead cells in mono-layer ([7]; Assay 6, 6 hours, TNF-alpha 40 ng/ml): 10.9 ± 3.4% | Percent of dead cells in mono-layer ([7]; Assay 6, 6 hours, no TNF-alpha): 13.8 ± 2.7% | optimal dose for THP-1 cells [8]: 25 mkg/ml | number of live cells per 0.1 ml ([8]; B Control + Glucural 25 mkg/ml, assay #1, 5 days growing): 241 ± 24 per 0.1 ml | number of live cells per 0.1 ml ([8]; B Control + Glucural 25 mkg/ml, assay #3, 4 days growing): 136 ± 5 per 0.1 ml | number of live cells per 0.1 ml ([8]; B Control + Glucural 25 mkg/ml, assay #4, 4 days growing): 160 ± 22 per 0.1 ml | number of live cells per 0.1 ml ([8]; D DMSO shock + Glucural 25 mkg/ml, assay #1, 5 days growing): 228 ± 48 per 0.1 ml | number of live cells per 0.1 ml ([8]; D DMSO shock + Glucural 25 mkg/ml, assay #2, 6 days growing): 184 ± 19 per 0.1 ml | number of live cells per 0.1 ml ([8]; D DMSO shock + Glucural 25 mkg/ml, assay #3, 4 days growing): 137 ± 6 per 0.1 ml | number of live cells per 0.1 ml ([8]; D DMSO shock + Glucural 25 mkg/ml, assay #4, 4 days growing): 222 ± 42 per 0.1 ml | Percentage of dead cells (trypan-blue test) [9, 10]: 13.3 ± 1.3% | concentrations of live cells [9, 10]: 1.06 ± 0.08 ×1,000,000 cells/ml | Percentage of dead cells (trypan-blue test) [9, 11]: 40.5 ± 0.5% | concentrations of live cells [9, 11]: 2.21 ± 0.26 ×1,000,000 cells/ml | Percentage of dead cells (trypan-blue test) [9, 12]: 2.6 ± 2.0% | concentrations of live cells [9, 12]: 0.52 ± 0.05 ×1,000,000 cells/ml | Percentage of dead cells (trypan-blue test) [9, 13]: 36.1 ± 0.75% | concentrations of live cells [9, 13]: 0.86 ± 0.04 ×1,000,000 cells/ml | Percentage of dead cells (trypan-blue test) [9, 14]: 17.2 ± 0.4% | concentrations of live cells [9, 14]: 0.65 ± 0.03 ×1,000,000 cells/ml | Percentage of dead cells (trypan-blue test) [9, 15]: 39.5 ± 1.1% | concentrations of live cells [9, 15]: 1.31 ± 0.02 ×1,000,000 cells/ml
